Values quoted from earlier work in patent EP2933251A1, “PHARMACEUTICAL COMPOSITION USABLE FOR THE TREATMENT OF A PATHOLOGY OF THE FOOT OF A HOOFED MAMMAL” (Weyts, Peter, priority 2014, dated 2015).

System: vaisseaux sanguins du sabot du cheval
Details: as stated in WO 2006/100468 A1

Structure (SMILES): CC(=O)N[C@@H](CS)C(=O)O [N-acétylcystéine]
- contraction des vaisseaux sanguins du sabot du cheval: permet de réduire la contraction des vaisseaux sanguins du sabot du cheval
